Measurements from patent publication US9302999B2, “Substituted triazoles as herbicides” (E. I. DU PONT DE NEMOURS AND COMPANY, priority 2012, dated 2016).

Tests used:
Type in all cases: in vivo
[1] = test system: crabgrass, large (large crabgrass, Digitaria sanguinalis); assay: Test E pre-/postemergence: crabgrass, large; conditions: Preemergence, scale 0 to 100
Source text: (§1) Seeds of plant species selected from corn (Zea mays), soybean (Glycine max), velvetleaf (Abutilon theophrasti), lambsquarters (Chenopodium album), poinsettia, wild (wild poinsettia, Euphorbia heterophylla), pigweed, palmer (palmer pigweed, Amaranthus palmeri), waterhemp (common waterhemp, Amaranthus rudis), smartweed (ladysthumb smartweed, Polygonum persicaria), surinam grass (Brachiaria decumbens), crabgrass, large (large crabgrass, Digitaria sanguinalis), crabgrass, Brazil (Brazilian crabgrass, Digitaria horizontalis), panicum, fall (fall panicum, Panicum dichotomiflorum), foxtail, giant (giant foxtail, Setaria faberii), foxtail, green (green foxtail, Setaria viridis), goosegrass (Eleusine indica), johnsongrass (Sorghum halepense), ragweed (common ragweed, Ambrosia elation), barnyardgrass (Echinochloa crus-galli), sandbur (southern sandbur, Cenchrus echinatus), arrowleaf sida (Sida rhombifolia), ryegrass, Italian (Italian ryegrass, Lolium multiflorum), dayflower, (VA) (Virginia dayflower, Commelina virginica), field bindweed (Convolvulus arvensis), cocklebur (common cocklebur, Xanthium strumarium), morningglory (Ipomoea coccinea), nightshade (eastern black nightshade, Solanum ptycanthum), kochia (Kochia scoparia), nutsedge, yellow (yellow nutsedge, Cyperus esculentus) and beggarticks (hairy beggarticks, Bidens pilosa) were planted into a silt loam soil and treated preemergence with test chemicals formulated in a non-phytotoxic solvent mixture which included a surfactant. At the same time, plants selected from these crop and weed species were planted in pots containing a growing medium comprising spaghnum peat moss, vermiculite, wetting agent and starter nutrients and treated with postemergence applications of some of the test chemicals formulated in the same manner. Plants ranged in height from 2 to 18 cm for postemergence treatments (1- to 4-leaf stage).
(§2) Treated plants and controls were maintained in a greenhouse for 14 to 21 days, after which time all species were compared to controls and visually evaluated. Plant response ratings, summarized in Table E, are based on a scale of 0 to 100 where 0 is no effect and 100 is complete control. A dash (-) response means no test result.

[2] = test system: arrowleaf sida (Sida rhombifolia); assay: Test E pre-/postemergence: arrowleaf sida; conditions: scale 0 to 100
In short: (§3)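 Preemergence: seeds sown in silt loam soil and treated with test chemicals in non-phytotoxic solvent with surfactant. Postemergence: plants at 2 to 18 cm (1- to 4-leaf stage) in peat/vermiculite medium were sprayed with the same formulations. After 14 to 21 days in greenhouse, injury was rated visually against controls, 0 (no effect) to 100 (complete control).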

[3] = test system: lambsquarters (Chenopodium album); assay: Test E pre-/postemergence: lambsquarters; conditions: Preemergence, scale 0 to 100
In short: as §3

[4] = test system: foxtail, giant (giant foxtail, Setaria faberii); assay: Test E pre-/postemergence: foxtail, giant; conditions: Preemergence, scale 0 to 100
Source text: as §1, §2

[5] = test system: pigweed, palmer (palmer pigweed, Amaranthus palmeri); assay: Test E pre-/postemergence: pigweed, palmer; conditions: scale 0 to 100
In short: as §3

[6] = test system: ragweed (common ragweed, Ambrosia elation); assay: Test E pre-/postemergence: ragweed; conditions: Preemergence, scale 0 to 100
In short: as §3

[7] = test system: crabgrass, Brazil (Brazilian crabgrass, Digitaria horizontalis); assay: Test E pre-/postemergence: crabgrass, Brazil; conditions: scale 0 to 100
Source text: as §1, §2

[8] = test system: ryegrass, Italian (Italian ryegrass, Lolium multiflorum); assay: Test E pre-/postemergence: ryegrass, Italian; conditions: scale 0 to 100
Source text: as §1, §2

kochia (Kochia scoparia) = assay: Test E pre-/postemergence: kochia; conditions: Preemergence, scale 0 to 100
Source text: as §1, §2

[9] = test system: foxtail, green (green foxtail, Setaria viridis); assay: Test E pre-/postemergence: foxtail, green; conditions: Preemergence, scale 0 to 100
Source text: as §1, §2

[10] = test system: dayflower, (VA) (Virginia dayflower, Commelina virginica); assay: Test E pre-/postemergence: dayflower, (VA); conditions: scale 0 to 100
Source text: as §1, §2

SMILES: Cc1nn(-c2ccc(C(F)(F)F)cc2)nc1Oc1ccnc(C(F)(F)F)c1 [Compound 120]
- Plant response rating: Crabgrass, Large ([1]; 16 g ai/ha): 75
- Plant response rating: Crabgrass, Large ([1]; 31 g ai/ha): 95
- Plant response rating: Crabgrass, Large ([1]; 62 g ai/ha): 98
- Plant response rating: Crabgrass, Large ([1]; 125 g ai/ha): 100
- Plant response rating: Crabgrass, Large ([1]; 250 g ai/ha): 100
- Plant response rating: Arrowleaf Sida ([2]; Postemergence, 8 g ai/ha): 30
- Plant response rating: Arrowleaf Sida ([2]; Postemergence, 16 g ai/ha): 40
- Plant response rating: Arrowleaf Sida ([2]; Postemergence, 31 g ai/ha): 40
- Plant response rating: Arrowleaf Sida ([2]; Postemergence, 62 g ai/ha): 50
- Plant response rating: Arrowleaf Sida ([2]; Postemergence, 125 g ai/ha): 50
- Plant response rating: Arrowleaf Sida ([2]; Preemergence, 16 g ai/ha): 0
- Plant response rating: Arrowleaf Sida ([2]; Preemergence, 31 g ai/ha): 0
- Plant response rating: Arrowleaf Sida ([2]; Preemergence, 62 g ai/ha): 0
- Plant response rating: Arrowleaf Sida ([2]; Preemergence, 125 g ai/ha): 15
- Plant response rating: Arrowleaf Sida ([2]; Preemergence, 250 g ai/ha): 50
- Plant response rating: Lambsquarters ([3]; 16 g ai/ha): 0
- Plant response rating: Lambsquarters ([3]; 31 g ai/ha): 50
- Plant response rating: Lambsquarters ([3]; 62 g ai/ha): 90
- Plant response rating: Lambsquarters ([3]; 125 g ai/ha): 98
- Plant response rating: Lambsquarters ([3]; 250 g ai/ha): 98
- Plant response rating: Foxtail, Giant ([4]; 16 g ai/ha): 85
- Plant response rating: Foxtail, Giant ([4]; 31 g ai/ha): 100
- Plant response rating: Foxtail, Giant ([4]; 62 g ai/ha): 100
- Plant response rating: Foxtail, Giant ([4]; 125 g ai/ha): 100
- Plant response rating: Foxtail, Giant ([4]; 250 g ai/ha): 100
- Plant response rating: Pigweed, Palmer ([5]; Postemergence, 8 g ai/ha): 90
- Plant response rating: Pigweed, Palmer ([5]; Postemergence, 16 g ai/ha): 90
- Plant response rating: Pigweed, Palmer ([5]; Postemergence, 31 g ai/ha): 90
- Plant response rating: Pigweed, Palmer ([5]; Postemergence, 62 g ai/ha): 95
- Plant response rating: Pigweed, Palmer ([5]; Postemergence, 125 g ai/ha): 100
- Plant response rating: Pigweed, Palmer ([5]; Preemergence, 16 g ai/ha): 65
- Plant response rating: Pigweed, Palmer ([5]; Preemergence, 31 g ai/ha): 100
- Plant response rating: Pigweed, Palmer ([5]; Preemergence, 62 g ai/ha): 100
- Plant response rating: Pigweed, Palmer ([5]; Preemergence, 125 g ai/ha): 100
- Plant response rating: Pigweed, Palmer ([5]; Preemergence, 250 g ai/ha): 100
- Plant response rating: Ragweed ([6]; 16 g ai/ha): 0
- Plant response rating: Ragweed ([6]; 31 g ai/ha): 0
- Plant response rating: Ragweed ([6]; 62 g ai/ha): 30
- Plant response rating: Ragweed ([6]; 125 g ai/ha): 35
- Plant response rating: Ragweed ([6]; 250 g ai/ha): 80
- Plant response rating: Crabgrass, Brazil ([7]; Postemergence, 8 g ai/ha): 10
- Plant response rating: Crabgrass, Brazil ([7]; Postemergence, 16 g ai/ha): 15
- Plant response rating: Crabgrass, Brazil ([7]; Postemergence, 31 g ai/ha): 25
- Plant response rating: Crabgrass, Brazil ([7]; Postemergence, 62 g ai/ha): 30
- Plant response rating: Crabgrass, Brazil ([7]; Postemergence, 125 g ai/ha): 40
- Plant response rating: Crabgrass, Brazil ([7]; Preemergence, 16 g ai/ha): 90
- Plant response rating: Crabgrass, Brazil ([7]; Preemergence, 31 g ai/ha): 100
- Plant response rating: Crabgrass, Brazil ([7]; Preemergence, 62 g ai/ha): 100
- Plant response rating: Crabgrass, Brazil ([7]; Preemergence, 125 g ai/ha): 100
- Plant response rating: Crabgrass, Brazil ([7]; Preemergence, 250 g ai/ha): 100
- Plant response rating: Ryegrass, Italian ([8]; Postemergence, 8 g ai/ha): 0
- Plant response rating: Ryegrass, Italian ([8]; Postemergence, 16 g ai/ha): 10
- Plant response rating: Ryegrass, Italian ([8]; Postemergence, 31 g ai/ha): 15
- Plant response rating: Ryegrass, Italian ([8]; Postemergence, 62 g ai/ha): 20
- Plant response rating: Ryegrass, Italian ([8]; Postemergence, 125 g ai/ha): 35
- Plant response rating: Ryegrass, Italian ([8]; Preemergence, 16 g ai/ha): 0
- Plant response rating: Ryegrass, Italian ([8]; Preemergence, 31 g ai/ha): 35
- Plant response rating: Ryegrass, Italian ([8]; Preemergence, 62 g ai/ha): 35
- Plant response rating: Ryegrass, Italian ([8]; Preemergence, 125 g ai/ha): 90
- Plant response rating: Ryegrass, Italian ([8]; Preemergence, 250 g ai/ha): 98
- Plant response rating: Kochia (kochia (Kochia scoparia); 16 g ai/ha): 0
- Plant response rating: Kochia (kochia (Kochia scoparia); 31 g ai/ha): 20
- Plant response rating: Kochia (kochia (Kochia scoparia); 62 g ai/ha): 50
- Plant response rating: Kochia (kochia (Kochia scoparia); 125 g ai/ha): 90
- Plant response rating: Kochia (kochia (Kochia scoparia); 250 g ai/ha): 100
- Plant response rating: Foxtail, Green ([9]; 16 g ai/ha): 15
- Plant response rating: Foxtail, Green ([9]; 31 g ai/ha): 85
- Plant response rating: Foxtail, Green ([9]; 62 g ai/ha): 100
- Plant response rating: Foxtail, Green ([9]; 125 g ai/ha): 100
- Plant response rating: Foxtail, Green ([9]; 250 g ai/ha): 100
- Plant response rating: Dayflower, VA ([10]; Postemergence, 8 g ai/ha): 10
- Plant response rating: Dayflower, VA ([10]; Postemergence, 16 g ai/ha): 10
- Plant response rating: Dayflower, VA ([10]; Postemergence, 31 g ai/ha): 10
- Plant response rating: Dayflower, VA ([10]; Postemergence, 62 g ai/ha): 10
- Plant response rating: Dayflower, VA ([10]; Postemergence, 125 g ai/ha): 15
- Plant response rating: Dayflower, VA ([10]; Preemergence, 16 g ai/ha): 0
- Plant response rating: Dayflower, VA ([10]; Preemergence, 31 g ai/ha): 0
- Plant response rating: Dayflower, VA ([10]; Preemergence, 62 g ai/ha): 50
- Plant response rating: Dayflower, VA ([10]; Preemergence, 125 g ai/ha): 50
- Plant response rating: Dayflower, VA ([10]; Preemergence, 250 g ai/ha): 50
